How the values were obtained:
[1] = tested on: influenza A/PR/8/34 virus; assay: Survival of influenza-infected mice, iota-carrageenan and oseltamivir, treatment starting 48 hours post infection (Example 3); type: in vivo; settings: treatment from 48 hours post infection, twice daily; oseltamivir 5 mg/kg/d orally; iota-carrageenan 1200 μg/ml i.n. (120 μg per day); 10 mice per group
Description: (§1) 40 C57B16 mice were infected with a lethal dose (10× LD50) of influenza A/PR/8/34 virus by intranasal instillation (i.n.) without anaesthesia. After infection of the nasal cavity the virus spreads in the respiratory tract and finally causes a lethal pneumonia in mice. This model mimics the natural influenza infection in humans via the respiratory tract that sometimes causes severe conditions.
The infection of the mice was done as described in Example 1. The mice were divided into four groups of 10 mice each. 48 hours post infection the mice were treated twice daily i.n. without anaesthesia, wherein the first group was treated with a placebo (25 μl 0.5% aqueous NaCl-solution per nostril) as a negative control, the second group was treated orally with oseltamivir at a dosage of 5 mg/kg/d, the third group was treated with 25 μl per nostril of an aqueous iota-carrageenan polymer solution at a concentration of 1200 μg/ml, and the fourth group was treated with a combination of iota-carrageenan and oseltamivir twice daily, wherein oseltamivir was administered orally at a dosage of 5 mg/kg/d and the total amount of iota-carrageenan administered intranasally was 100 μl corresponding to an amount of 120 μg per day. The survival of the animals was determined daily as a surrogate parameter for health. The difference in the number of surviving animals was evaluated using a log-rank test.

[2] = tested on: influenza virus; settings: cited from earlier work; for reduction of median time until detection of symptom alleviation: individuals of the YOPI group (young, old, pregnant, immunocompromised); for reduction of median time until detectable symptom alleviation: non-risk adults group (not YOPI)
[3] = cited from earlier work
[4] = tested on: influenza A/PR/8/34 virus; assay: Survival of influenza-infected mice, iota-/kappa-carrageenan and zanamivir, treatment starting 48 hours post infection (Example 4); type: in vivo; settings: treatment from 48 hours post infection; zanamivir 0.5 mg/kg/d intranasally; carrageenan polymer 120 μg per day intranasally; 20 mice per group
[5] = tested on: influenza A/PR/8/34 virus; assay: Mean weight of mice infected with lethal influenza virus, treatment starting 24 hours post infection (Example 2); type: in vivo, C57B16 mice; settings: treatment from 24 hours post infection; single actives: first seven days; combination: from day 3 onwards (pmax<0,004), t-test
[6] = tested on: influenza A/PR/8/34 virus; assay: Survival of mice infected with lethal influenza virus, treatment starting 48 hours post infection (Example 1); type: in vivo, C57B16 mice; settings: lethal dose (10x LD50) i.n.; treatment from 48 hours post infection, twice daily; iota-carrageenan 1200 μg/ml 25 μl per nostril i.n.; TAMIFLU 10 mg/kg/d per os; 10 mice per group
Method: as §1
The mice were divided into four groups of 10 mice each. 48 hours post infection the mice were treated twice daily i.n. without anaesthesia, wherein the first group was treated with a placebo (25 μl 0.5% aqueous NaCl-solution per nostril) as a negative control and the second group was treated solely with 25 μl per nostril of a aqueous iota-carrageenan polymer solution at a concentration of 1200 μg/ml. Group three and four were fed with 10 mg/kg/d of TAMIFLU® per os, wherein the third group additionally received the iota-carrageenan polymer intranasally at the above concentration whereas the fourth group received the intranasal placebo treatment in addition to the oral Tamiflu® administration. […] The survival of the animals was determined daily as a surrogate parameter for health. The difference in the number of surviving animals was evaluated using a log-rank test.

Row | SMILES | survival of mice (survivors out of 10) [1] | reduction of median time until detection of symptom alleviation [2] [days] | reduction of median time until detectable symptom alleviation [2] [days] | Tmax ([3]; in vivo) [h] | absolute bioavailability ([3]; orally administered, on average) | survival of mice (survivors out of 20) [4] | weight loss compared to placebo treatment [5] | survival of mice (survivors out of 10) [6]
1 | CCOC(=O)C1=C[C@@H](OC(CC)CC)[C@H](NC(C)=O)[C@@H](N)C1 [oseltamivir] | 3/10 | 0.74 | 0.55 |  |  |  |  | 
2 | CC(=O)N[C@H]1[C@H]([C@H](O)[C@H](O)CO)OC(C(=O)O)=C[C@@H]1N=C(N)N [zanamivir] |  | 0.98 | 0.57 | 1 to 2 | about 2% | 7/20 |  | 
3 | CCOC(=O)C1=C[C@@H](OC(CC)CC)[C@H](NC(C)=O)[C@@H](N)C1 [TAMIFLU®, oseltamivir phosphate] |  |  |  |  |  |  | failed to provide a significant benefit with regard to weight loss | 3/10

— US10022449B2, “Synergistic antiviral composition and use thereof” (priority 2009, dated 2018)
